Assay results: ChEMBL document CHEMBL3576827, “New anti-inflammatory tocopherol-derived metabolites from the Taiwanese soft coral Cladiella hirsuta” (Bioorg Med Chem Lett, 2015)

Key:
Conditions in all cases: Neutrophil
[1] = (§1) Antiinflammatory activity in human neutrophils assessed as inhibition of fMLP/CB-induced superoxide anion generation by measuring superoxide dismutase-inhibitable reduction of ferricytochrome c at 10 uM preincubated for 5 mins followed by fMLP/CB-induction measured after 10 mins by spectrophotometric analysis; type: functional
[2] = Antiinflammatory activity in human neutrophils assessed as inhibition of fMLP/CB-induced elastase release using MeO-Suc-Ala-Ala-Pro-Val-p-nitroanilide as elastase substrate at 10 uM preincubated for 5 mins followed by fMLP/CB-induction by spectroscopic analysis; type: functional
[3] = as §1, with “c” for “c at 10 uM”; type: functional, cell-based
[4] = Antiinflammatory activity in human neutrophils assessed as inhibition of fMLP/CB-induced elastase release using MeO-Suc-Ala-Ala-Pro-Val-p-nitroanilide as elastase substrate preincubated for 5 mins followed by fMLP/CB-induction by spectroscopic analysis; type: functional, cell-based

Row | Structure (SMILES) | inhibition at 10 µM [1] [%] | inhibition at 10 µM [2] [%] | IC50 [3] | IC50 [4]
1 | COC(=O)C(C)CCC[C@]1(C)CC[C@]2(O1)C(=O)C(C)=C(C)[C@@]2(O)C(C)=O (stereo not given in full) | 78.3 | 89.5 | 4.1 µM | 3.7 µM
2 | COC(=O)C(C)CCCC(C)(O)CCC1=C(C)C(=O)C2(C)OC2(C)C1=O (stereo not given) | 8.5 | 21.2 | > 10 µM | > 10 µM
3 | O=c1cc(N2CCOCC2)oc2c(-c3ccccc3)cccc12 [LY-294002] |  |  | 0.6 µg/mL | 1.2 µg/mL
